{
  "source": "patent US20080233206A1",
  "about": "“COMPOSITIONS AND METHODS FOR ANTI-INFLAMMATORY TREATMENTS” (Molecular Research Center, Inc., priority 2007, published 2008)",
  "key": {"[1]": {"conditions": "prolonged treatment (for acne); cited from earlier work"}, "various cell types": {"test_system": "various cell types", "conditions": "in vitro and in vivo; cited from earlier work"}, "[2]": {"test_system": "human lymphoma Molt-4 cells", "experiment": "Growth of human lymphoma Molt-4 cells", "assay_type": "cell-based", "conditions": "5 μg/ml, read-out: inhibition of cell growth", "excerpt": "(§1) The intestine epithelial cells have a high proliferation rate. Thus, the anti-proliferating effect of semisynthetic or synthetic tetracyclines may lead to potential side effects, especially during a long-term therapy."}, "[3]": {"conditions": "cited from earlier work"}, "[4]": {"test_system": "human intestine cell line CCL-221", "experiment": "Growth of human intestine cell line CCL-221", "assay_type": "cell-based", "conditions": "5 μg/ml", "excerpt": "as §1"}, "[5]": {"conditions": "human subjects, concurrently with a protein diet (Welling, 1977)"}},
  "note": "Like-named read-outs stand apart in the source and are kept apart here.",
  "data": [
    {"smiles": "CN(C)c1ccc(O)c2c1C[C@H]1C[C@H]3[C@H](N(C)C)C(O)=C(C(N)=O)C(=O)[C@@]3(O)C(O)=C1C2=O", "note": "[minocycline]", "values": [
      {"measurement": "induced syndrome", "setting": "[1]", "value": "drug-induced lupus"}
    ]},
    {"smiles": "NC(=O)C1=C(O)C[C@@H]2C[C@@H]3Cc4cccc(O)c4C(=O)C3=C(O)[C@]2(O)C1=O", "note": "[CMT-3]", "values": [
      {"measurement": "effect on cell proliferation", "setting": "various cell types", "value": "inhibit proliferation"}
    ]},
    {"smiles": "CN(C)[C@@H]1C(O)=C(C(N)=O)C(=O)[C@@]2(O)C(O)=C3C(=O)c4c(O)cccc4[C@@](C)(O)[C@H]3C[C@@H]12", "note": "[tetracycline, 4-(Dimethylamino)-1,4,4α,5,5α,6,11,12α-octahydro-3,6,10,12,12α-pentahydroxy-6-methyl-1,1′-dioxo-2-naphtacenecarobxamide]", "values": [
      {"measurement": "inhibition at 5 µg/mL", "setting": "[2]", "value": "~20", "unit": "%"},
      {"measurement": "serum level", "setting": "[3]; [5]", "value": 1800, "unit": "ng/mL"}
    ]},
    {"smiles": "C[C@H]1c2cccc(O)c2C(=O)C2=C(O)[C@]3(O)C(=O)C(C(N)=O)=C(O)[C@@H](N(C)C)[C@@H]3[C@@H](O)[C@@H]21", "note": "[doxycycline]", "values": [
      {"measurement": "inhibition at 5 µg/mL", "setting": "[2]", "value": "~80", "unit": "%"},
      {"measurement": "serum level", "setting": "[3]; fasting subjects (Depperman, 1989)", "value": 2700, "unit": "ng/mL"},
      {"measurement": "serum level", "setting": "[3]; [5]", "value": 2600, "unit": "ng/mL"},
      {"measurement": "serum level", "setting": "[3]; with antacid (aluminum-magnesium hydroxide) (Depperman, 1989)", "value": 450, "unit": "ng/mL"},
      {"measurement": "inhibition at 5 µg/mL", "setting": "[4]", "value": "~60", "unit": "%"}
    ]}
  ]
}
